Assay results reported in patent US10435388B2, “Selective inhibitors of clinically important mutants of the EGFR tyrosine kinase” (CS PHARMATECH LIMITED, priority 2016, dated 2019).
“And” between values parts separate entries of the source, which are not always exact repeats. Equal values may be shown once. Where a name gives a salt, the structure may show the parent alone. Read-outs that look alike come from different tables or passages of the source.

Legend:
H1975 cells (DM) = experiment: H1975 inhibition assay (cell proliferation), Method B; format: cell-based; details: cellular proliferation, several runs
INSR = biological target: T1, INSR (Homo sapiens, UniProt P06213); experiment: INSR inhibition assay (Caliper EZ Reader); format: biochemical; details: enzyme assay
T1 construct: purchased CARNA BIOSCIENCE 08-142

Mouse in vivo PK study = details: male CDI mice; for F: PO 10 mg/kg vs IV 1 mg/kg; for clearance / half-life / AUC / Cmax: mouse, plasma; for clearance / half-life: IV 1 mg/kg; for half-life: read-out: T1/2 (IV) (converted); for AUC / Cmax: PO 10 mg/kg
Experimental: To determine the drug concentration in plasma of NJB-342, NJB-348 and NJB-463 following intravenous and oral administration in male CDI Mice, to get the pharmacokinetic profile and PK parameters
Test animals: healthy male CDI mice (body weight 20-30 g, 18 mice, free access to food and water), provided by Sibeifu laboratory.
Dose Level and dose route: dosed the animals via intravenous injection from tail vein for IV group (1 mg/kg, 5 mL/kg, 10% DMSO/40% PEG400/50% water), dosed the animals via oral gavage for PO group (10 mg/kg, 10 mL/kg, (10% DMSO/40% PEG400/50% water), respectively.
Samples collection: the healthy animals were used, weighed the bodyweight and marked at tail and cage card prior to dosing. Blood samples (0.03 mL per time point) were collected from dorsal metatarsal vein at 0.083, 0.25, 0.5, 1, 2, 4, 8, 24 h post dose for IV group and at 0.25, 0.5, 1, 2, 4, 8, 24 h post dose for PO group, the terminal time point was collected from heart (˜0.3 mL). The blood samples were put into the tube with heparin-Na coated and then put on the cold box, centrifuged at 4° C. 4000 g, 5 minutes immediately after collecting all samples per time point to get plasma. The plasma samples were stored in a freezer at −75±15° C. prior to analysis.

PC9 cells (SM) = experiment: PC-9 growth inhibition assay (cell proliferation), Method B; format: cell-based, human; details: cellular proliferation, several runs
IGF-1R = biological target: T2, IGF-1R (Homo sapiens, UniProt P08069); experiment: IGF-1R inhibition assay (Caliper EZ Reader); format: biochemical; details: enzyme assay
T2 construct: purchased CARNA BIOSCIENCE 08-141
Method in brief: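 IGF-1R protein and peptide substrate were preincubated 30 min at RT with compound. Phosphorylated and non-phosphorylated fluorescent peptides were separated by mobility shift, and the read-out is the conversion ratio.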

[1] = system: p-EGFR in PC9 cells (Exon 19 deletion EGFR); experiment: Exon19 deletion EGFR (activating single mutant) PC-9 cellular autophosphorylation assay; format: cell-based, human; details: 2 h treatment, ELISA
Experimental: (§1) Cellular EGFR Autophosphorylation Assays.
The human lung cell line PC9 (Exon 19 deletion EGFR) is obtained from the American type Culture Collection. […] Cells are grown in a humidified incubator at 37° C. with 5% CO2, Assays to measure cellular phosphorylation of endogenous p-EGFR in cell Iysates are carried out according to the protocol described in the R&D Systems DuoSet IC Human Phospho-EGF R ELISA (R&D Systems catalogue number #DYCI095). 40 μL of cells are seeded (10000 cells/well) in growth medium in Corning black, clear-bottomed 384-well plates and incubated at 37° C., with 5%0/CO2 overnight. […] Plates are incubated for a further 2 h, then following aspiration of medium, 40 μL×lysis buffer is added to each well. Greiner black high bind 384 well plates are coated with capture antibody and then blocked with 3% BSA. Following removal of block, 15 μL of lysate are transferred to the Greiner black high bind 384 well plates and incubated for 2 hours. Following aspiration and washing of the plates with PBS, 20 μL of detection antibody are added and incubated for 2 hours. […] The data obtained with each compound are exported into a suitable software package (such as Origin) to perform curve fitting analysis.

[2] = system: p-EGFR in A431 cells (wild type EGFR, EGF stimulated); experiment: Wild type EGFR A431 autophosphorylation inhibition assay (ELISA); format: cell-based, human; details: 2 h treatment, EGF stimulation 10 min
Experimental: as §1
Wild Type EGFR A431 Autophosphorylation Inhibition Assay (ELISA).
After 2 hour treatment with test compounds, add 4.5 μL of EGF (1 μg/mL) into each well and stimulate for 10 min. The rest of the procedure was processed in the same manner as described above for H1975 cells.

[3] = system: p-EGFR in H1975 cells (L858R/T790M double mutant EGFR)
Experimental: H1975 cells were cryopreserved in liquid nitrogen. […] Remove the vial from liquid nitrogen and thaw rapidly by placing at 37° C. in a water bath with gentle agitation for 1-2 minutes and then decontaminated by wiping with 70% ethanol before opening in a Class II biological safety cabinet. Transfer the vial contents drop-wise into 10 mL of cell culture medium in a sterile 15 mL conical tube. Then centrifuged the tube at 200× g for 5 minutes and aspirate the supernatant. Re-suspend the cell pellet with 1 mL of fresh cell culture medium and transfer it in to the T75 flask containing cell culture medium.
To passage H1975 cells, firstly, the adherent cells were rinsed with Trypsin/EDTA. Then add Trypsin/EDTA (3 mL for a T75 flask) into the flask and swirl to ensure the cells coated with trypsin evenly. Then incubate the flasks at 37° C. until the cells detach. Add equal volume of cell culture medium to stop the reaction. Collect the detached cells and centrifuged at 200× g for 5 minutes followed by re-suspended in fresh culture medium. Then, the cells were transferred into a new T75 flask containing cell culture medium. Cells were sub-cultured three times per week at a ratio of 1:4 in culture medium.
Harvest cells from flask into cell culture medium and the cell numbers counted using Automated Cell Counter (Thermo Fisher Scientific, Countess™). Dilute the cells into 250,000 cells/mL with culture medium and add 40 μL of cell suspension into each well of 384-well cell culture plate as designated. The final concentration was 10,000 cells/well. The plates were covered with lid and placed in 37° C. 5% CO2 incubator overnight for cell attachment.
On the second day, test compounds were dissolved in DMSO at 10 mM. […] The same volume of DMSO was adopted as high control.
Place the plate back to 37° C. 5% CO2 incubator for 2 hours. Replace the medium of each well with ice-cold HBSS. Then remove the HBSS, add 30 μL cell lysis buffer into each well and shake the plates for 30 mins on a plate shaker. Centrifuge for 5 min at 1,000 rpm to remove bubbles and transfer 25 uL of the lysate supernatant for p-EGFR assay by using a commercial ELISA kit (R&D, DYC1095B-5).
For estimation of IC50, the absorption readout are transformed to % relative activity by applying the following equation
[formula] The IC50 was then calculated by fitting in XLFit (IDBS, Guildford, Surrey) to a four parameters logistic curve.

A431 cells (WT) = experiment: A431 inhibition assay (cell proliferation), Method B; format: cell-based, human; details: cellular proliferation, several runs
Experimental: Cell Proliferation Assays—Method B
A431 Inhibition Assay, (Cell Proliferation).
The rest procedure was conducted in the same manner as described above for H1975 cells.

[4] = Homo sapiens, A-431, cellular EGFR autophosphorylation
[5] = Homo sapiens, NCI-H1975, 2 h, read-out: H1975 IC50 (nM), cellular EGFR autophosphorylation, 2 h treatment, ELISA

T2 sequence (P08069 959-1367 limits assumed): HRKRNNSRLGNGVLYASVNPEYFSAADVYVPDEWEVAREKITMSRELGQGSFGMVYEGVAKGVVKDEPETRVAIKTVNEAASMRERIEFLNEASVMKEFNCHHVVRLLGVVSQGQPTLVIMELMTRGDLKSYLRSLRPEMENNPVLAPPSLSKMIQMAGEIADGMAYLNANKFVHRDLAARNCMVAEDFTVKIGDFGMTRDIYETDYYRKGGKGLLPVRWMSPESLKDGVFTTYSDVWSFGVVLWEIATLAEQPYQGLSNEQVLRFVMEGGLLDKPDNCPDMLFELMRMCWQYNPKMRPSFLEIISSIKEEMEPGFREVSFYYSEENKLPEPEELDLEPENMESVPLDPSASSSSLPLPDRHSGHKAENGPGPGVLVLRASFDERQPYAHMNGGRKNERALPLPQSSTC
T1 sequence (P06213 989-1382 limits assumed): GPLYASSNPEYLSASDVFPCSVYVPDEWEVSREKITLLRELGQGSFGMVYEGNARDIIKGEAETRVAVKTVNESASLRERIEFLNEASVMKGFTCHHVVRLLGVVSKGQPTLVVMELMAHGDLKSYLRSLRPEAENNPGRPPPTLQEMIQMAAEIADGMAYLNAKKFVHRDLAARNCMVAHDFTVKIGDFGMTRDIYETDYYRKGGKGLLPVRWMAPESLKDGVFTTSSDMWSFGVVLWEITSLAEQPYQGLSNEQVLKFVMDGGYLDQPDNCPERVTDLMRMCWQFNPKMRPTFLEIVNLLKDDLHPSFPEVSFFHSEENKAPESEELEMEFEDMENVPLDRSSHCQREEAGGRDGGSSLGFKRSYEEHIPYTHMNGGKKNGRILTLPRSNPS

| SMILES | IC50 (H1975 cells (DM); Homo sapiens, NCI-H1975, 72 h) | IC50 (H1975 cells (DM); 72 h) | IC50 (INSR) | IC50 (PC9 cells (SM); Homo sapiens, PC-9, 72 h) | IC50 (PC9 cells (SM); 72 h) | IC50 (IGF-1R) | IC50 ([1]; Homo sapiens, PC-9, 2 h) | IC50 [2, 4] | IC50 [3, 5] | IC50 (A431 cells (WT); Homo sapiens, A-431, 72 h) | other results |
| --- | --- | --- | --- | --- | --- | --- | --- | --- | --- | --- | --- |
| C=CC(=O)Nc1cc(Nc2nccc(-n3nc(NC)c4ccccc43)n2)c(OC)cc1N(C)CCN(C)C [Example 21, N-(2-((2-(Dimethylamino)ethyl)(methyl)amino)-4-methoxy-5-(4-(3-(methylamino)-1H-indazol-1-yl)pyrimidin-2-ylamino)phenyl) acrylamide] | 2.37 nM | 2.01 nM and 2.9 nM | 134 nM | 2.54 nM | 2.33 nM and 4.49 nM | 180 nM | – | – | – | – | F (Mouse in vivo PK study): 27.2%; clearance (Mouse in vivo PK study): 163 mL/min/kg; half-life (Mouse in vivo PK study): 43.8 min; AUC (Mouse in vivo PK study): 282 ng·h/mL; Cmax (Mouse in vivo PK study): 86 ng/mL |
| C=CC(=O)Nc1cc(Nc2nccc(-n3cc(C(C)=O)c4ccccc43)n2)c(OC)cc1N(C)CCN(C)C [Example 31, N-(5-((4-(3-Acetyl-1H-indol-1-yl)pyrimidin-2-yl)amino)-2-((2-(dimethylamino)ethyl)(methyl)amino)-4-methoxyphenyl) acrylamide] | 13.9 nM | 11.6 nM | 814 nM | 8.54 nM | 8.39 nM | 765 nM | 13.7 nM | 161 nM | 7.64 nM | 1070 nM | IC50 (A431 cells (WT); 72 h): 942 nM |
| C=CC(=O)Nc1cc(Nc2nccc(-n3nc(NCC)c4ccccc43)n2)c(OC)cc1N(C)CCN(C)C [Example 41] | 9.23 nM | – | 1270 nM | 7.52 nM | – | 1420 nM | 6.26 nM | 137 nM | 11.9 nM | 295 nM | – |
| C=CC(=O)Nc1cc(Nc2nccc(-n3nc(C(C)(C)O)c4ccccc43)n2)c(OC)cc1N(C)CCN(C)C [Example 45] | 2.61 nM | – | 1020 nM | 4.4 nM | – | 1270 nM | 10.6 nM | 76.2 nM | 3.83 nM | 461 nM | – |
| C=CC(=O)Nc1cc(Nc2nccc(-n3nc(N(C)C)c4ncccc43)n2)c(OC)cc1N(C)CCN(C)C [Example 55, N-(5-(4-(3-(Dimethylamino)-1H-pyrazolo[4,3-b]pyridin-1-yl)pyrimidin-2-ylamino)-2-(N-(2-(dimethylamino)ethyl)-N-methylamino)-4-methoxyphenyl) acrylamide] | 3.93 nM | – | 1200 nM | 9.09 nM | – | 1300 nM | 15.5 nM | 106 nM | 4.07 nM | 2800 nM | – |
| C=CC(=O)Nc1cc(Nc2nccc(-n3nc(NC)c4ncccc43)n2)c(OC)cc1N(C)CCN(C)C [Example 56, N-(5-(4-(3-(Methylamino)-1H-pyrazolo[4,3-b]pyridin-1-yl)pyrimidin-2-ylamino)-2-(N-(2-(dimethylamino)ethyl)-N-methylamino)-4-methoxyphenyl) acrylamide] | 2.77 nM | – | 433 nM | 1.66 nM | – | 637 nM | 4.04 nM | 79.9 nM | 6.28 nM | 511 nM | – |
| C=CC(=O)N[C@@H]1CN(c2nc(Nc3cn(C)nc3OC)c3ncn(C)c3n2)C[C@H]1F [PF-06747775] | – | 27.8 nM | – | – | 7.1 nM | – | – | – | – | – | IC50 [1]: 7.49 nM; IC50 (A431 cells (WT); 72 h): 657 nM; IC50 ([2]; cellular EGFR autophosphorylation): 78.2 nM; IC50 ([3]; read-out: H1975 IC50, cellular EGFR autophosphorylation, 2 h treatment, ELISA): 8 nM |

Now from value to compound, other results behind:

| IC50 (H1975 cells (DM); Homo sapiens, NCI-H1975, 72 h) | IC50 (H1975 cells (DM); 72 h) | IC50 (INSR) | IC50 (PC9 cells (SM); Homo sapiens, PC-9, 72 h) | IC50 (PC9 cells (SM); 72 h) | IC50 (IGF-1R) | IC50 ([1]; Homo sapiens, PC-9, 2 h) | IC50 [2, 4] | IC50 [3, 5] | IC50 (A431 cells (WT); Homo sapiens, A-431, 72 h) | SMILES | other results |
| --- | --- | --- | --- | --- | --- | --- | --- | --- | --- | --- | --- |
| 2.46 nM | 2.63 nM | 325 nM | 3.82 nM | 3.38 nM | 271 nM | 1.37 nM | 26.1 nM | 1.15 nM | – | C=CC(=O)Nc1cc(Nc2nccc(-c3c[nH]c4c(OC)nccc34)n2)c(OC)cc1N(C)CCN(C)C [Example 23, N-(2-((2-(Dimethylamino)ethyl)(methyl)amino)-4-methoxy-5-((4-(7-methoxy-1H-pyrrolo[2,3-c]pyridin-3-yl)pyrimidin-2-yl)amino)phenyl) acrylamide] | – |
| 9.92 nM | – | 13200 nM | 13.4 nM | – | 4820 nM | 17.8 nM | 200 nM | 6.78 nM | 1620 nM | C=CC(=O)Nc1cc(Nc2nccc(-c3cnc(NC)c(C(C)=O)c3)n2)c(OC)cc1N(C)CCN(C)C [Example 27, N-(5-((4-(5-Acetyl-6-(methylamino)pyridin-3-yl)pyrimidin-2-yl)amino)-2-((2-(dimethylamino)ethyl)(methyl)amino)-4-methoxyphenyl) acrylamide] | – |
| 4.62 nM | – | 514 nM | 7.23 nM | – | 470 nM | 7.14 nM | 400 nM | 2.19 nM | 1770 nM | C=CC(=O)Nc1cc(Nc2nccc(-c3cc(C(N)=O)cc4c3ccn4C)n2)c(OC)cc1N(C)CCN(C)C [Example 34, 4-(2-((5-Acrylamido-4-((2-(dimethylamino)ethyl)(methyl)amino)-2-methoxyphenyl)amino)pyrimidin-4-yl)-1N-methyl-1H-indole-6-carboxamide hydrochloride] | IC50 (H1975 cells (DM); 72 h, hydrochloride): 3.23 nM; F (Mouse in vivo PK study): 10.3%; clearance (Mouse in vivo PK study): 110 mL/min/kg; half-life (Mouse in vivo PK study): 66.6 min; AUC (Mouse in vivo PK study): 165 ng·h/mL; Cmax (Mouse in vivo PK study): 58 ng/mL; IC50 (PC9 cells (SM); 72 h, hydrochloride): 10.9 nM; IC50 (A431 cells (WT); 72 h, hydrochloride): 928 nM |
| 5.1 nM | – | 290 nM | 3.63 nM | – | 207 nM | 14 nM | 134 nM | 8.5 nM | 267 nM | C=CC(=O)Nc1cc(Nc2nccc(-c3cnc(OC)c4c3ccn4C)n2)c(OC)cc1N(C)CCN(C)C [Example 57, N-(5-(4-(7-Methoxy-1N-methyl-1H-pyrrolo[2,3-c]pyridin-4-yl)pyrimidin-2-ylamino)-2-(N-(2-(dimethylamino)ethyl)-N-methylamino)-4-methoxyphenyl) acrylamide] | – |
| 1.05 nM | – | 403 nM | 2.07 nM | – | 243 nM | 4.76 nM | 110 nM | 1.06 nM | 506 nM | C=CC(=O)Nc1cc(Nc2nccc(-c3cc(C#N)c4[nH]cc(C)c4c3)n2)c(OC)cc1N(C)CCN(C)C [Example 67, N-(5-(4-(7-Cyano-3-methyl-1H-indol-5-yl)pyrimidin-2-ylamino)-2-((2-(dimethylamino)ethyl)(methyl)amino)-4-methoxyphenyl) acrylamide] | – |
